Measured values as given in patent publication US20050014696A1, “Additive cytoprotective effects of two bioactive regions of pro-opiomelanocortin hormone” (priority 2001, published 2005).

System: 96% ethanol induced gastric lesions
Test: 96% ethanol induced gastric lesions cytoprotection model
Format: in vivo, male Wistar rats
Conditions: 8 animals, mean±standard deviation, saline control 255.5±78.1, p<0.05 compared to controls
Experimental: Bioactive peptide fragments SYSMEHFRWGKPV and YGGFM were tested individually and in combination, by means of the standard cytoprotection model of the 96% ethanol induced gastric lesions in male Wistar rats (6, 7). In the control group of 8 animals treated with physiological saline the area of gastric lesions was 255.5±78.1 mm^2 (mean±standard deviation, FIG. 1) (7). In the group of 8 animals treated with the combination of peptides SYSMEHFRWGKPV (1 mg/kg) and YGGFM (10 mg/kg) the area of gastric lesions was 0.3±0.7 mm^2 (p<0.05 compared to controls, FIG. 1) (7). In the group of 8 animals treated with peptide SYSMEHFRWGKPV (1 mg/kg) the area of gastric lesions was 5.9±8 mm^2 (p<0.05 compared to controls, FIG. 1) (7). In the group of 8 animals treated with peptide YGGFM (10 mg/kg) the area of gastric lesions was 139.4±36.1 mm^2 (p<0.05 compared to controls, FIG. 1) (7). The combination of peptides SYSMEHFRWGKPV and YGGFM that provided best cytoprotective effect is patented under the name KOMET.
FIG. 1 defines the cytoprotective effects of the bioactive peptide fragments SYSMEHFRWGKPV and YGGFM of the pro-opiomelanocortin molecule, and their combination KOMET, in the model of the ethanol induced gastric lesions in rats.
FIG. 1. […]

Substance | area of gastric lesions (1 mg/kg) [mm^2] | area of gastric lesions (10 mg/kg) [mm^2]
SYSMEHFRWGKPV | 5.9±8 | –
YGGFM | – | 139.4±36.1
